Measurements: patent US4728509A, “Aqueous liquid preparation” (Takeda Chemical Industries, Ltd., priority 1985, dated 1988)

Experiment: Solubility test of compound (a) with and without solubilizers (Experimental Example 1; HPLC of filtrate)
Conditions: not given
Protocol: Solubility tests of the compound (a) (2-amino-7-isopropyl-5-oxo-5H-[1]-benzopyrano[2,3-b]pyridine-3-carboxylic acid) employing the solubilizers of this invention and, for comparison, employing various conventional solubilizers were performed.
The solubility was measured by the following manner:
An excess amount of the compound (a) was added to a given volume of a phosphate buffer, the mixture was sufficiently stirred, then the pH was adjusted to a given level, the mixture was allowed to stand at room temperature (25° C.) for 48 hours, the resultant was subjected to filtration with 0.45μ membrane filter, followed by measuring the concentration of the compound (a) in the filtrate by means of high performance liquid chromatography.

| effect for improving the solubility of compound (a) | Compound |
| --- | --- |
| excellent effect | polyvinylpyrrolidone |
| excellent effect | OC[C@H]1O[C@@H]2O[C@H]3[C@H](O)[C@@H](O)[C@@H](O[C@H]4[C@H](O)[C@@H](O)[C@@H](O[C@H]5[C@H](O)[C@@H](O)[C@@H](O[C@H]6[C@H](O)[C@@H](O)[C@@H](O[C@H]7[C@H](O)[C@@H](O)[C@@H](O[C@H]8[C@H](O)[C@@H](O)[C@@H](O[C@H]1[C@H](O)[C@H]2O)O[C@@H]8CO)O[C@@H]7CO)O[C@@H]6CO)O[C@@H]5CO)O[C@@H]4CO)O[C@@H]3CO [β-cyclodextrin] |
| some improvement | NNC(=O)c1ccncc1 [isoniazid, reference compound] |
| less effective | Polyoxyethylene sorbitan monooleate [Tween 80, reference compound] |

Same assay, conditions: in words; substance used as solubilizer

| Compound | effect for improving the solubility of compound (a) |
| --- | --- |
| O=C([O-])c1ccccc1O.[Na+] [sodium salicylate, reference compound] | less effective |
| NC(N)=O [urea, reference compound] | less effective |
